Where “and” joins values, the source holds several entries; their conditions need not be identical. Identical values can stand only once.
Assay: solvent given as SMILES

With `CC1=[N+]2C(=C(c3c4ccccc4cc4ccccc34)c3ccc(C)n3[B-]2(F)F)C=C1` the absorption maximum (in C1CCOC1) was 517 nm, the absorption maximum (in CC#N) was 514 nm and the absorption maximum (in CCCCCC) was 515 nm and 516 nm. It also gave an absorption maximum (in CCO) of 515 nm, an absorption maximum (in CN(C)C=O) of 517 nm and an absorption maximum (in CO) of 517 nm. For the same molecule, the absorption maximum (in CS(C)=O) was 519 nm, the absorption maximum (in Cc1ccccc1) was 519 nm and the absorption maximum (in ClC(Cl)Cl) was 518 nm. It also gave an absorption maximum (in ClCCl) of 518 nm.

With `COc1cc2oc(=O)c3c4ccc(N(C)C)cc4c4ccc5cccc6c(c1)c2c3c4c56` the absorption maximum (in C1CCOC1) was 480 nm.

With `C=C[Si](c1c2ccccc2cc2ccccc12)(c1c2ccccc2cc2ccccc12)c1c2ccccc2cc2ccccc12` the absorption maximum (in ClC(Cl)Cl) was 404 nm.

Work on `Cc1ccccc1[B-]1(c2ccccc2C)n2nc(C(F)(F)F)cc2-c2c3ccccc3cc[n+]21` yielded an absorption maximum (in C1CCCCC1) of 374 nm, an absorption maximum (in Cc1ccccc1) of 380 nm and an absorption maximum (in ClCCl) of 374 nm.

`C[Si](C)(C)c1ccc(-c2ccc(-c3ccc(-c4ccc(-c5ccc([Si](C)(C)C)s5)s4)c4nsnc34)s2)s1` gave an absorption maximum (in C1CCOC1) of 513 nm.

For `CCNc1ccc2c(c1)C(C)(C)C(=O)C=C2`, the absorption maximum (in O) was 402 nm.

`CCN(CC)c1ccc2cc(-c3ccc(-c4ccc(-c5cc6ccccc6oc5=O)cc4)cc3)c(=O)oc2c1` gave an absorption maximum (in ClCCl) of 409 nm.

With `O=C(O)CCNc1cccc2ccccc12` the absorption maximum (in CCO) was 330 nm.

Work on `CCCCCC(=O)Oc1cc2[nH]c(cc2CCOC)c2nc(ccc3[nH]c(cc3CCOC)c3nc1C(CCOC)=C3)C(CCOC)=C2` yielded an absorption maximum (in Cc1ccccc1) of 646 nm.

With `O=C(O)c1ccccc1-c1nc(-c2ccccc2)c2ccccn12` the absorption maximum (in CC#N) was 357 nm.

`CCOC(=O)/N=c1/oc2cc(OC)ccc2cc1C#N` showed an absorption maximum (in ClCCl) of 370 nm.

Molecule `Cc1cc2nc3cc(C)c(N)cc3[n+](-c3ccccc3)c2cc1N` has an absorption maximum (in CC(C)O) of 537.1 nm, an absorption maximum (in CCO) of 534 nm and an absorption maximum (in CO) of 529 nm. It also gave an absorption maximum (in O) of 520 nm.

In the case of `COc1cccc(-n2c(-c3ccc(O)cc3)nc(C)c2C)c1`, the absorption maximum (in CC#N) was 288 nm, the absorption maximum (in CCO) was 292 nm and the absorption maximum (in CO) was 287 nm.

`CCCCCCCCC1(CCCCCCCC)c2ccccc2-c2ccc(-c3nnc(-c4cccc(-n5c6ccc(C(C)(C)C)cc6c6cc(C(C)(C)C)ccc65)c4)o3)cc21` gave an absorption maximum (in Cc1ccccc1) of 345 nm.

`C=CCNc1ccc2c(ccc3oc4cc(=[N+](C)C)ccc-4nc32)c1` gave an absorption maximum (in CC#N) of 597 nm, an absorption maximum (in CCO) of 601 nm and an absorption maximum (in ClCCl) of 610 nm. The absorption maximum (in O) was 579 nm.

Work on `C[C@]12SC(=O)C=C1c1nc(-c3ccc(Cl)cc3)[nH]c1C1=CC(=O)S[C@@]12C` yielded an absorption maximum (in CC#N) of 451 nm.

`c1ccc(-c2nc(-c3nc(-c4ccccc4)c(-c4ccccc4)o3)oc2-c2ccccc2)cc1` showed an absorption maximum (in C1COCCO1) of 343 nm.

`C(#Cc1ccc(-n2c3ccccc3c3ccccc32)cc1)c1ccccc1` gave an absorption maximum (in CC#N) of 324 nm, an absorption maximum (in CCCCC) of 323 nm and an absorption maximum (in CO) of 322 nm. The absorption maximum (in Cc1ccccc1) was 329 nm, the absorption maximum (in ClC(Cl)Cl) was 326 nm and the absorption maximum (in ClCCl) was 326 nm.

In the case of `CCC12C(=C3C(=C4c5ccc(-c6ccc(C(C)=O)s6)cc5S(=O)(=O)C41CC)C(F)(F)C(F)(F)C3(F)F)c1ccc(-c3ccc(C(C)=O)s3)cc1S2(=O)=O` (centres undefined), the absorption maximum (in C1COCCO1) was 485 nm.

With `FC(F)(F)c1ccc(-c2pc3ccccc3s2)cc1` (centres undefined) the absorption maximum (in CC#N) was 331 nm.

Molecule `COc1ccc(-c2cc3c4c(c2)CCc2cc(-c5ccc(OC)cc5)cc(c2-4)CC3)cc1` has an absorption maximum (in ClC(Cl)Cl) of 332.1 nm.

Molecule `COc1ccc(-c2ncccn2)cc1` has an absorption maximum (in ClCCl) of 283 nm.

Work on `COc1ccc(C#CC2=C3CCc4ccccc4C3=[O+][B-](F)(F)O2)cc1` yielded an absorption maximum (in ClCCl) of 446 nm.

In the case of `COC(=O)c1ccc(C#Cc2ccccc2)cc1`, the absorption maximum (in C1CCCCC1) was 316.6 nm, the absorption maximum (in CC#N) was 311.6 nm and the absorption maximum (in CC(C)O) was 313.8 nm. For the same molecule, the absorption maximum (in CCCCCC) was 314.8 nm, the absorption maximum (in CCCCCCCCCCCCCCCC) was 317.3 nm and the absorption maximum (in CCCCCCCCCCCCCCCCCl) was 317.2 nm. For the same molecule, the absorption maximum (in CO) was 311.8 nm.

In the case of `CC(C)Oc1ccc(C#Cc2cc3ccccc3oc2=O)cc1`, the absorption maximum (in CC#N) was 356 nm.

Molecule `[BH3-][P+]1(c2ccccc2)c2ccccc2-c2sc3ccccc3c21` (centres undefined) has an absorption maximum (in C1CCCCC1) of 324 nm, an absorption maximum (in CC#N) of 323 nm and an absorption maximum (in CCO) of 323 nm. The absorption maximum (in ClCCl) was 325 nm.

Work on `COc1ccc2c(CC(=O)NN)coc2c1` yielded an absorption maximum (in C1CCOC1) of 290 nm, an absorption maximum (in CC#N) of 290 nm and an absorption maximum (in CC(C)=O) of 298 nm. The absorption maximum (in CCCCO) was 278 nm, the absorption maximum (in CCCO) was 289 nm and the absorption maximum (in CCO) was 291 nm. The absorption maximum (in CCOC(C)=O) was 300 nm, the absorption maximum (in CN(C)C=O) was 288 nm and the absorption maximum (in CO) was 290 nm. It also gave an absorption maximum (in ClCCl) of 287 nm.

Molecule `O=S(=O)(c1ccc2c(c1)c1ccccc1n2-c1ccccc1)c1ccc2c(c1)c1ccccc1n2-c1ccccc1` has an absorption maximum (in ClCCl) of 290 nm.

`CC/[NH+]=c1\cc2oc3cc(NCCC(=O)O)c4ccccc4c3nc-2cc1C` showed an absorption maximum (in CCO) of 590 nm and an absorption maximum (in O) of 580 nm.

Molecule `c1ccc(-c2nc(-c3ccccc3)nc(-c3ccc(-n4c5ccc(-c6ccc7sc8ccccc8c7c6)cc5c5cc(-c6ccc7sc8ccccc8c7c6)ccc54)cc3)n2)cc1` has an absorption maximum (in Cc1ccccc1) of 377 nm.

For `CCN(CC)c1ccc(C=Cc2nc3nc4ccccc4nc3s2)c(OC)c1`, the absorption maximum (in CO) was 485 nm.

Work on `CC(C)(C)N1C(=O)c2c(cc3ccc4cccc5ccc2c3c45)C1O` (centres undefined) yielded an absorption maximum (in ClC(Cl)Cl) of 385 nm.

Work on `F[B-]1(F)n2c(ccc2-c2ccccc2)C(C(F)(F)F)=C2C=CC(c3ccccc3)=[N+]21` yielded an absorption maximum (in CCCCCC) of 592 nm.

With `N#CC(C#N)=Cc1ccc2c(c1)c1ccccc1n2-c1cc2ccccc2c2ccccc12` the absorption maximum (in CC#N) was 395 nm, the absorption maximum (in CCCCC) was 393 nm and the absorption maximum (in Cc1ccccc1) was 402 nm. It also gave an absorption maximum (in ClCCl) of 406 nm.

Molecule `c1ccc(-c2ccnc(-c3ccccc3)n2)cc1` has an absorption maximum (in ClC(Cl)Cl) of 278 nm.

Molecule `F[B-]1(F)n2c(ccc2-c2ccccc2)C(c2ccc(I)cc2)=C2C=CC(c3ccccc3)=[N+]21` has an absorption maximum (in ClC(Cl)Cl) of 555 nm.

With `c1ccc2c(c1)Cc1ccccc1N2c1c2ccccc2c(N2c3ccccc3Cc3ccccc32)c2ccccc12` the absorption maximum (in Cc1ccccc1) was 440 nm.

`CC1(C)c2ccccc2N(c2ccc(-c3ncccn3)cc2)c2ccccc21` gave an absorption maximum (in Cc1ccccc1) of 359 nm.

`Nc1cc2ccc3cccc4ccc(c1)c2c34` showed an absorption maximum (in CC#N) of 338 nm, an absorption maximum (in CCCCOCCCC) of 338 nm and an absorption maximum (in CO) of 336 nm.

`CC1(C)c2ccccc2N(c2ccc(-c3n[n+]4c(o3)-c3ccccc3O[B-]4(F)F)cc2)c2ccccc21` showed an absorption maximum (in C1COCCO1) of 361 nm, an absorption maximum (in CC(C)=O) of 360 nm and an absorption maximum (in CCN(CC)CC) of 362 nm. For the same molecule, the absorption maximum (in CCO) was 361 nm, the absorption maximum (in CCOC(C)=O) was 361 nm and the absorption maximum (in CS(C)=O) was 362 nm. The absorption maximum (in Cc1ccccc1) was 364 nm, the absorption maximum (in ClC(Cl)Cl) was 367 nm and the absorption maximum (in ClCCCl) was 362 nm. For the same molecule, the absorption maximum (in ClCCl) was 383 nm and the absorption maximum (in Clc1ccccc1) was 369 nm.

`c1ccc(N(c2ccccc2)c2ccc(-c3ccc(-c4ccc(-c5ccc(-c6ccc(N(c7ccccc7)c7ccccc7)cc6)s5)c5nsnc45)s3)cc2)cc1` gave an absorption maximum (in ClC(Cl)Cl) of 530 nm.

Molecule `c1ccc(-c2cc(-c3ccccc3)[o+]c(-c3ccccc3)c2)cc1` has an absorption maximum (in CC#N) of 403 nm and an absorption maximum (in ClCCCl) of 420 nm.

With `N#Cc1ccc(/C=C2\C=C(c3ccccc3)NC2=O)cc1` the absorption maximum (in C1COCCO1) was 438 nm.

Molecule `CC(=O)c1ccc(-c2cc3c(ccc4sccc43)s2)cc1` has an absorption maximum (in ClCCl) of 350 nm.

Work on `CC(C)(C)c1ccc2oc3nc4oc5ccc(N6c7ccccc7Oc7ccccc76)cc5c4cc3c2c1` yielded an absorption maximum (in ClC(Cl)Cl) of 347 nm.

For `c1ccc(N(c2ccccc2)c2ccc3c(c2)-c2ccccc2C32c3ccccc3-n3c4ccccc4c4cccc2c43)cc1` (centres undefined), the absorption maximum (in ClCCl) was 354 nm.

`C1CCN2CCCn3c2c(c2c3=NCCN=2)C1` showed an absorption maximum (in CC#N) of 370 nm and an absorption maximum (in CCCCCC) of 352 nm.

With `CCCCc1ccc(-n2c3c4cc(F)ccc4nc(-c4ccc(OC)cc4)c3c3c2c2c(-c4ccc(OC)cc4)nc4ccc(F)cc4c2n3-c2ccc(CCCC)cc2)cc1` the absorption maximum (in ClC(Cl)Cl) was 305 nm.

Molecule `COC(=O)C1(C(=O)OC)Cc2c(C#Cc3ccc(OC)cc3)c(-c3ccc(OC)cc3)c3c(-c4ccccc4)c(-c4ccccc4)c(-c4ccccc4)c(-c4ccccc4)c3c2C1` has an absorption maximum (in C1CCOC1) of 348.89 nm.

With `c1cc2c(N3CCCCC3)c3ccc(=[N+]4CCCCC4)cc-3oc2cc1N1CCCCC1` the absorption maximum (in ClCCl) was 491 nm.

Work on `COC(=O)c1ccc(/C=C2\N=C(c3ccc([N+](=O)[O-])cc3)NC2=O)cc1` yielded an absorption maximum (in C1COCCO1) of 405 nm.

For `C(=C\c1ccccn1)/c1ccc(N(c2ccc(/C=C/c3ccccn3)cc2)c2ccc(-c3nc4ccccc4nc3-c3ccc(N(c4ccc(/C=C/c5ccccn5)cc4)c4ccc(/C=C/c5ccccn5)cc4)cc3)cc2)cc1`, the absorption maximum (in C1CCOC1) was 383 nm and the absorption maximum (in Cc1ccccc1) was 378 nm.

With `CC[N+](CC)=c1ccc2c(-c3ccccc3C(=O)O)c3c(=O)oc4cc5c(cc4c3oc-2c1)CCCN5C` the absorption maximum (in CCO) was 598 nm, the absorption maximum (in ClC(Cl)Cl) was 610 nm and the absorption maximum (in O) was 601 nm.

`CCCCn1c2ccc(C#N)cc2c2cc(C#N)cc(-c3ccc(N(c4ccccc4)c4ccccc4)cc3)c21` showed an absorption maximum (in ClCCl) of 352 nm.

`COc1cc2c(cc1-c1ccc(C(F)(F)F)cc1)Cc1c3c(c4c(c1-2)-c1cc(OC)c(-c2ccc(C(F)(F)F)cc2)cc1C4)C(=O)N(CCC(C)C)C3=O` showed an absorption maximum (in C1CCOC1) of 404 nm.

`CC(C)CN1C(=O)/C(=C/c2ccc([N+](=O)[O-])cc2)C=C1c1ccccc1` gave an absorption maximum (in C1COCCO1) of 456 nm.

`COC(=O)C1=NNC(C(=O)OC)=C2c3ccccc3C(=O)c3ccccc3C12` (centres undefined) gave an absorption maximum (in CC#N) of 391 nm.

For `Oc1ccc2ncccc2c1`, the absorption maximum (in CC#N) was 331 nm, the absorption maximum (in CCCC#N) was 333 nm and the absorption maximum (in CO) was 331 nm. The absorption maximum (in Cc1ccccc1) was 332 nm and the absorption maximum (in ClCCl) was 330 nm.

In the case of `Fc1c(-n2c3ccccc3c3ccccc32)c(F)c(-n2c3ccccc3c3ccccc32)c(-c2nnc(-c3ccccc3)o2)c1-n1c2ccccc2c2ccccc21`, the absorption maximum (in Cc1ccccc1) was 345 nm.

`CN(C)c1cc(-c2ccc(C#Cc3cc[n+](C)cc3)cc2)cc2ccccc12` gave an absorption maximum (in ClCCl) of 366 nm.

In the case of `F[B-]1(F)OC(/C=C/c2ccccc2)=CC(c2ccccc2)=[O+]1`, the absorption maximum (in ClCCl) was 398 nm.

With `O=c1oc2ccccc2nc1-c1ccc(Cl)cc1` the absorption maximum (in c1ccccc1) was 344 nm.
